Values of other authors in publication PMC8886800 (Journal of the American Chemical Society, 2021).

For Ac-KLTWMELY QLAYKGI [MA], the “effect on angiogenesis (reported)” value (angiogenesis) is listed as “capable of inhibiting angiogenesis” and the “binding to VEGF receptors (reported)” value (VEGFR) is listed as “demonstrated binding to VEGF receptors”.
